Data: the NIST ThermoML archive (doi:10.1016/j.fluid.2004.10.022)

What was measured:
[1] = refractive index (Na D-line) (dimensionless); conditions: 298.15 K; 101.33 kPa; Liquid; Standard Abbe refractometry
[2] = Liquid; for mass density: 101.33 kPa

CC(C)CO [2-methyl-1-propanol]
Conditions | refractive index
[1] | 1.3937

[2]
Conditions | mass density [kg/m3] | vapor or sublimation pressure [kPa]
298.15 K | 797.83 | –
342.52 K | – | 20
381.09 K | – | 100

CC(=O)OCC(C)C [2-methylpropyl ethanoate]
Conditions | refractive index
[1] | 1.3876

[2]
Conditions | mass density [kg/m3] | vapor or sublimation pressure [kPa]
293.15 K | 866.12 | –
307.43 K | – | 3.99
315.56 K | – | 5.99
322.93 K | – | 8.48
328.64 K | – | 10.98
335.75 K | – | 14.98
341.55 K | – | 18.96
342.95 K | – | 20
346.88 K | – | 23.44
351.45 K | – | 27.95
355.75 K | – | 32.86
359.66 K | – | 37.89
363.22 K | – | 42.93
366.39 K | – | 47.84
368.76 K | – | 51.85
371.61 K | – | 57.06
374.55 K | – | 62.82
376.93 K | – | 67.79
379.15 K | – | 72.78
381.03 K | – | 77.2
383.63 K | – | 83.72
385.84 K | – | 89.68
387.69 K | – | 94.78
389.16 K | – | 98.95
389.9 K | – | 100
391.39 K | – | 105.57

CC(=O)OC(C)(C)C [1,1-dimethylethyl ethanoate]
Conditions | refractive index
[1] | 1.384

[2]
Conditions | mass density [kg/m3] | vapor or sublimation pressure [kPa]
298.15 K | 860.53 | –
307.53 K | – | 8.99
311.79 K | – | 10.99
315.64 K | – | 13.09
319.82 K | – | 15.73
324.28 K | – | 19.04
325.46 K | – | 20
328.94 K | – | 23.09
332.36 K | – | 26.48
336.12 K | – | 30.67
339.58 K | – | 35.02
342.46 K | – | 39.04
345.75 K | – | 43.98
348.84 K | – | 49.09
352.07 K | – | 54.94
354.95 K | – | 60.02
357.17 K | – | 65.33
359.63 K | – | 70.88
361.83 K | – | 76.15
363.85 K | – | 81.26
366 K | – | 87.01
367.99 K | – | 92.58
369.46 K | – | 96.91
370.68 K | – | 100.64
370.86 K | – | 100
372.26 K | – | 105.59

CC(C)(C)O [2-methylpropan-2-ol]
Conditions | refractive index
[1] | 1.3851

[2]
Conditions | mass density [kg/m3] | vapor or sublimation pressure [kPa]
300.93 K | – | 6.93
303.15 K | 775.4 | –
304.86 K | – | 8.76
309.12 K | – | 11.16
313.25 K | – | 14.03
315.48 K | – | 15.81
320.17 K | – | 20
320.75 K | – | 20.63
325.05 K | – | 25.76
328.35 K | – | 30.37
331.45 K | – | 35.33
334.15 K | – | 40.21
336.65 K | – | 45.17
338.85 K | – | 49.98
341.05 K | – | 55.12
342.95 K | – | 59.92
344.85 K | – | 65.12
346.45 K | – | 69.66
348.15 K | – | 74.84
349.75 K | – | 79.98
351.25 K | – | 85.09
352.65 K | – | 90.08
353.95 K | – | 94.97
355.15 K | – | 99.63
355.59 K | – | 100
355.65 K | – | 101.33
356.55 K | – | 105.13
357.65 K | – | 109.82
358.85 K | – | 115.07
359.83 K | – | 119.91
